Values quoted from earlier work in paper PMC9516332 (Frontiers in Oncology, 2022).
Where two headings read alike, the source gives them in different places.

Columns and labels:
Details in all cases: cited from earlier work
[1] = target: panel of 255 wild-type kinases (Homo sapiens, UniProt O60674)
[2] = target: panel of 255 wild-type kinases (Homo sapiens, UniProt P07947)
[3] = target: panel of 255 wild-type kinases (Homo sapiens, UniProt P49761)
[4] = target: T1, panel of 255 wild-type kinases (Homo sapiens, UniProt Q06418)
T1 sequence (Q06418 41-890): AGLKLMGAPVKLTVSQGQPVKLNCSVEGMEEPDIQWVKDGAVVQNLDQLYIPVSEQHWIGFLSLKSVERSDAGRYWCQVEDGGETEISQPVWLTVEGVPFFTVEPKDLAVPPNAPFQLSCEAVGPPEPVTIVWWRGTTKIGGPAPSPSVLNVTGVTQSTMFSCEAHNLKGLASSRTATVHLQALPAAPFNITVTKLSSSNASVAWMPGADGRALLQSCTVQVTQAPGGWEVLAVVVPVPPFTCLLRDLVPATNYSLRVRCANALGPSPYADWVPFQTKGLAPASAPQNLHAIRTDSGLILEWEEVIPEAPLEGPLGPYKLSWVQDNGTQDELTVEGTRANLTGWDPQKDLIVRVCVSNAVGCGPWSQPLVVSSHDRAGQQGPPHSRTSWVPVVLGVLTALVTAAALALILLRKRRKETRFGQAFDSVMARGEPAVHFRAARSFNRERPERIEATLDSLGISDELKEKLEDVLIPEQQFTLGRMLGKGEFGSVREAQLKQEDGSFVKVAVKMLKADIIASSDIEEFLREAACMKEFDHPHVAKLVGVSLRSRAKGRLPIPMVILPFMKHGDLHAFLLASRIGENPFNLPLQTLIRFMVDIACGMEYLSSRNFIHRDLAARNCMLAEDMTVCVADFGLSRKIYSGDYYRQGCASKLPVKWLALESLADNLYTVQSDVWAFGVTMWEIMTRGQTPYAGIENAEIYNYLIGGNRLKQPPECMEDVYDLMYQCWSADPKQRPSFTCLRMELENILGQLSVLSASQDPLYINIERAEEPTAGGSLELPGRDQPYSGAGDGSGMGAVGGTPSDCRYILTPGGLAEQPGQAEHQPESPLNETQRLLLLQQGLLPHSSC

[5] = target: T2, panel of 255 wild-type kinases (Homo sapiens, UniProt Q15139)
T2 sequence (Q15139 1-912): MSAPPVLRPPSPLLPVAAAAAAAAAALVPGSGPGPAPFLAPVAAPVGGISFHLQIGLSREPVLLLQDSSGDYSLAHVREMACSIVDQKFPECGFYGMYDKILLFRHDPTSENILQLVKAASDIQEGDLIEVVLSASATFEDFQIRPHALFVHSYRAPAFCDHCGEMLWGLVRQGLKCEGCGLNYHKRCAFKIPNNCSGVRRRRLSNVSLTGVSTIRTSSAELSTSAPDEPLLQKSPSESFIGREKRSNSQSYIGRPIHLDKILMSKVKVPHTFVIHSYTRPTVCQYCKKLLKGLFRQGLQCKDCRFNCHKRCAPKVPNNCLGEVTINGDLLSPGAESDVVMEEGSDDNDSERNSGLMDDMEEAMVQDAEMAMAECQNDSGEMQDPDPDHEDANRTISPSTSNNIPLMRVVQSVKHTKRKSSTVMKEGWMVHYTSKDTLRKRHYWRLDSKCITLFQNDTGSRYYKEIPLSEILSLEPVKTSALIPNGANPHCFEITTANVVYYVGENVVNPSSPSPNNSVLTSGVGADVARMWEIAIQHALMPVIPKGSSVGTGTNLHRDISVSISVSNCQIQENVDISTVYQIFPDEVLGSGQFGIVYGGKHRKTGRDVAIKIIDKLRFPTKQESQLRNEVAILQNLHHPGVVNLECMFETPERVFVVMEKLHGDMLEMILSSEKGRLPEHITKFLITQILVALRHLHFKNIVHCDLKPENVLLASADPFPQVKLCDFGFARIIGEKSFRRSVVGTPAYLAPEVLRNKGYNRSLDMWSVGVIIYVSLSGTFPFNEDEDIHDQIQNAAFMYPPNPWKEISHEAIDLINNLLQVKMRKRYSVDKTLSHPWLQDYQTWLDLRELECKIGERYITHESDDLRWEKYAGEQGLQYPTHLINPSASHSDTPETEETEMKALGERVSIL

[6] = target: panel of 255 wild-type kinases (Homo sapiens, UniProt Q15349)
[7] = kinase JAK2, 1 µmol/L single concentration, ref DOI: 10.1158/1535-7163.MCT-18-0877
[8] = kinase YES, 1 µmol/L single concentration, ref DOI: 10.1158/1535-7163.MCT-18-0877
[9] = kinase CLK3, 1 µmol/L single concentration, ref DOI: 10.1158/1535-7163.MCT-18-0877
[10] = kinase TYRO3, 1 µmol/L single concentration, ref DOI: 10.1158/1535-7163.MCT-18-0877
[11] = kinase PKD1, 1 µmol/L single concentration, ref DOI: 10.1158/1535-7163.MCT-18-0877
[12] = kinase RSK3, 1 µmol/L single concentration, ref DOI: 10.1158/1535-7163.MCT-18-0877
[13] = kinase JAK2, 1 µmol/L single concentration, ref DOI: 10.1371/journal.pone.0092146
[14] = kinase YES, 1 µmol/L single concentration, ref DOI: 10.1371/journal.pone.0092146
[15] = kinase CLK3, 1 µmol/L single concentration, ref DOI: 10.1371/journal.pone.0092146
[16] = kinase RSK3, 1 µmol/L single concentration, ref DOI: 10.1371/journal.pone.0092146
[17] = kinase PKD1, 1 µmol/L single concentration, ref DOI: 10.1371/journal.pone.0092146
[18] = kinase TYRO3, 1 µmol/L single concentration, ref DOI: 10.1371/journal.pone.0092146

CC#CC(=O)N1CCC[C@H]1c1nc(-c2ccc(C(=O)Nc3ccccn3)cc2)c2c(N)nccn12 [acalabrutinib]
%-inhibition at 1 µmol/L, JAK2 [1, 7]: -9%
%-inhibition at 1 µmol/L, YES [2, 8]: 22%
%-inhibition at 1 µmol/L, CLK3 [3, 9]: -15%
%-inhibition at 1 µmol/L, TYRO3 [4, 10]: 3%
%-inhibition at 1 µmol/L, PKD1 [5, 11]: -9.48%
%-inhibition at 1 µmol/L, RSK3 [6, 12]: 1.13%

CCc1cc2c(cc1N1CCC(N3CCOCC3)CC1)C(C)(C)c1[nH]c3cc(C#N)ccc3c1C2=O [alectinib]
%-inhibition at 1 µmol/L, JAK2 [1, 7]: -3%
%-inhibition at 1 µmol/L, YES [2, 8]: 44%
%-inhibition at 1 µmol/L, CLK3 [3, 9]: -2.36%
%-inhibition at 1 µmol/L, TYRO3 [4, 10]: 30%
%-inhibition at 1 µmol/L, PKD1 [5, 11]: 2%

COc1cc(N2CCC(N3CCN(C)CC3)CC2)ccc1Nc1ncc(Cl)c(Nc2ccccc2P(C)(C)=O)n1 [brigatinib]
%-inhibition at 1 µmol/L, JAK2 [1]: 90%
%-inhibition at 1 µmol/L, YES [2]: 102%
%-inhibition at 1 µmol/L, CLK3 [3]: 33%
%-inhibition at 1 µmol/L, TYRO3 [4]: 27%
%-inhibition at 1 µmol/L, PKD1 [5]: 74%
%-inhibition at 1 µmol/L, RSK3 [6]: 100%

Cc1cc(Nc2ncc(Cl)c(Nc3ccccc3S(=O)(=O)C(C)C)n2)c(OC(C)C)cc1C1CCNCC1 [ceritinib]
%-inhibition at 1 µmol/L, JAK2 [1, 7]: -5.35%
%-inhibition at 1 µmol/L, YES [2, 8]: 31%
%-inhibition at 1 µmol/L, CLK3 [3, 9]: 36%
%-inhibition at 1 µmol/L, TYRO3 [4, 10]: 7%
%-inhibition at 1 µmol/L, PKD1 [5, 11]: 27%
%-inhibition at 1 µmol/L, RSK3 [6, 12]: 90%

O=C(c1ccc(F)c(F)c1Nc1ccc(I)cc1F)N1CC(O)([C@@H]2CCCCN2)C1 [cobimetinib]
%-inhibition at 1 µmol/L, JAK2 [1, 7]: 1.2%
%-inhibition at 1 µmol/L, YES [2, 8]: -0.706%
%-inhibition at 1 µmol/L, CLK3 [3, 9]: 4%
%-inhibition at 1 µmol/L, TYRO3 [4, 10]: 4.55%
%-inhibition at 1 µmol/L, PKD1 [5, 11]: -5%
%-inhibition at 1 µmol/L, RSK3 [6, 12]: 8%

C[C@@H](Oc1cc(-c2cnn(C3CCNCC3)c2)cnc1N)c1c(Cl)ccc(F)c1Cl [crizotinib]
%-inhibition at 1 µmol/L, JAK2 [1, 13]: 98%
%-inhibition at 1 µmol/L, YES [2, 14]: 65%
%-inhibition at 1 µmol/L, CLK3 [3, 15]: -5%
%-inhibition at 1 µmol/L, RSK3 [6, 16]: 3.34%

CC(C)(C)c1nc(-c2cccc(NS(=O)(=O)c3c(F)cccc3F)c2F)c(-c2ccnc(N)n2)s1 [dabrafenib]
%-inhibition at 1 µmol/L, CLK3 [3, 15]: 17%
%-inhibition at 1 µmol/L, PKD1 [5, 17]: 83%

C=CC(=O)N1CCC[C@@H](n2nc(-c3ccc(Oc4ccccc4)cc3)c3c(N)ncnc32)C1 [ibrutinib]
%-inhibition at 1 µmol/L, JAK2 [1, 7]: 0.407%
%-inhibition at 1 µmol/L, TYRO3 [4, 10]: 12%
%-inhibition at 1 µmol/L, PKD1 [5, 11]: 3.22%
%-inhibition at 1 µmol/L, RSK3 [6, 12]: 9%

CO[C@@H]1[C@H](N(C)C(=O)c2ccccc2)C[C@H]2O[C@]1(C)n1c3ccccc3c3c4c(c5c6ccccc6n2c5c31)C(=O)NC4 [midostaurin]
%-inhibition at 1 µmol/L, JAK2 [1, 7]: 99%
%-inhibition at 1 µmol/L, YES [2, 8]: 89%
%-inhibition at 1 µmol/L, TYRO3 [4, 10]: 31%
%-inhibition at 1 µmol/L, RSK3 [6, 12]: 98%

C=CC(=O)Nc1cc(Nc2nccc(-c3cn(C)c4ccccc34)n2)c(OC)cc1N(C)CCN(C)C [osimertinib]
%-inhibition at 1 µmol/L, JAK2 [1, 7]: 4%
%-inhibition at 1 µmol/L, YES [2, 8]: 13%
%-inhibition at 1 µmol/L, CLK3 [3, 9]: 6%
%-inhibition at 1 µmol/L, TYRO3 [4, 10]: 8%
%-inhibition at 1 µmol/L, PKD1 [5, 11]: 22%
%-inhibition at 1 µmol/L, RSK3 [6, 12]: 53%

CC(=O)Nc1cccc(-n2c(=O)n(C3CC3)c(=O)c3c(Nc4ccc(I)cc4F)n(C)c(=O)c(C)c32)c1 [trametinib]
%-inhibition at 1 µmol/L, JAK2 [1, 13]: 1.75%
%-inhibition at 1 µmol/L, YES [2, 14]: -1.63%
%-inhibition at 1 µmol/L, CLK3 [3, 15]: -0.0684%
%-inhibition at 1 µmol/L, TYRO3 [4, 18]: -2.65%
%-inhibition at 1 µmol/L, PKD1 [5, 17]: 9%
%-inhibition at 1 µmol/L, RSK3 [6, 16]: -5%

CCCS(=O)(=O)Nc1ccc(F)c(C(=O)c2c[nH]c3ncc(-c4ccc(Cl)cc4)cc23)c1F [vemurafenib]
%-inhibition at 1 µmol/L, JAK2 [1, 13]: 18%
%-inhibition at 1 µmol/L, YES [2, 14]: 74%
%-inhibition at 1 µmol/L, CLK3 [3, 15]: -14%
%-inhibition at 1 µmol/L, TYRO3 [4, 18]: 3.16%
%-inhibition at 1 µmol/L, PKD1 [5, 17]: 43%
%-inhibition at 1 µmol/L, RSK3 [6, 16]: -0.497%
